Results as given in patent publication US12162820B2 (TAIWANJ PHARMACEUTICALS CO., LTD., priority 2019, dated 2024).

How the values were obtained:
Assay type in all cases: biochemical
HDAC2 = target: T1, HDAC2 (Homo sapiens, UniProt Q92769); test: HDAC Inhibition Screening Assay (FLUOR DE LYS Fluorimetric Drug Discovery Kit), HDAC2; conditions: for inhibition at 2 µM: 2 μM compound; for inhibition at 10 µM: 10 μM compound; for inhibition at 50 µM: 50 μM compound
T1 construct: purchased Enzo Life Sciences
In short: (§1)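 Compounds at 2 μM, 10 μM and 50 μM were each tested against HDAC1, HDAC2 and HDAC3 using a two-step fluorimetric assay. Results are given as percent of basal control after baseline subtraction.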

HDAC1 = target: T2, HDAC1 (Homo sapiens, UniProt Q13547); test: HDAC Inhibition Screening Assay (FLUOR DE LYS Fluorimetric Drug Discovery Kit), HDAC1; conditions: for inhibition at 2 µM: 2 μM compound; for inhibition at 10 µM: 10 μM compound; for inhibition at 50 µM: 50 μM compound
T2 construct: purchased Enzo Life Sciences
In short: as §1

HDAC3 = target: T3, HDAC3 (Homo sapiens, UniProt O15379); test: HDAC Inhibition Screening Assay (FLUOR DE LYS Fluorimetric Drug Discovery Kit), HDAC3; conditions: for inhibition at 2 µM: 2 μM compound; for inhibition at 10 µM: 10 μM compound; for inhibition at 50 µM: 50 μM compound
T3 construct: purchased Enzo Life Sciences
In short: as §1

ATX (autotaxin) = target: T4, ATX (autotaxin) (Homo sapiens, UniProt Q13822); test: Autotaxin Inhibition Screening Assay (choline release from LPC, LPC-CR); conditions: for inhibition at 4 µM: 4 μM compound; for inhibition at 20 µM: 20 μM compound; for inhibition at 50 µM: 50 μM compound
T4 construct: purchased Cayman 10803
In short: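 20 ng ATX incubated with 100 μM 14:0 LPC in 50 mM Tris pH 8.0, 0.01% Triton X-100, 50 mM CaCl2, with choline oxidase/HRP/2 mM HVA coupling; compounds at 4, 20 and 50 μM. HVA fluorescence (ex/em 320/450 nm) read every 60 s for 90 min; inhibition % from slopes corrected for blank versus vehicle.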

T1 sequence (Q92769 whole entry): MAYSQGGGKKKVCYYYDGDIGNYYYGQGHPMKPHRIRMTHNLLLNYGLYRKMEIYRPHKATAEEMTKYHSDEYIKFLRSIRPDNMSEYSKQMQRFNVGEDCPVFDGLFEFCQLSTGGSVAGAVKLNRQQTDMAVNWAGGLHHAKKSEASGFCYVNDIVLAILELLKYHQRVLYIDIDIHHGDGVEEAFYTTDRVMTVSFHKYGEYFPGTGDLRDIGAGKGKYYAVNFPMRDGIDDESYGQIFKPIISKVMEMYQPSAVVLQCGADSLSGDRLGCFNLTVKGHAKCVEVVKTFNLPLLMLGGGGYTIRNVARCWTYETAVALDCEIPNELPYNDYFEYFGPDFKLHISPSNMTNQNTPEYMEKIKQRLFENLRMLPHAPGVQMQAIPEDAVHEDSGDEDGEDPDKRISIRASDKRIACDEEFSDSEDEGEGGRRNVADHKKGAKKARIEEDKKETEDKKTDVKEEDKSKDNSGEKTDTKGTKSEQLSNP
T3 sequence (O15379 whole entry): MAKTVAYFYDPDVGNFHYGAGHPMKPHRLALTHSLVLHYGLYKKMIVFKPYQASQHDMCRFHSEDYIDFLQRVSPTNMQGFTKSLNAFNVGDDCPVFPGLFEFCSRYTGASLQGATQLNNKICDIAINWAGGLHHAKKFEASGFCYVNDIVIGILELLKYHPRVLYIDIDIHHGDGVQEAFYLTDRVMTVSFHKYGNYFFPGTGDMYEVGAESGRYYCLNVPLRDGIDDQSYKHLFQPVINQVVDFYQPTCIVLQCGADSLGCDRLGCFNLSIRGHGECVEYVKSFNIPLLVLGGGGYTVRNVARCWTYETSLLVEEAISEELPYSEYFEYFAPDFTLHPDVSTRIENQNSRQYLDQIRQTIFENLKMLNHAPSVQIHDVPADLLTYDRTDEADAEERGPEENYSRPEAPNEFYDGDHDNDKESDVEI
T3 sequence (O75376 395-489 partner limits assumed): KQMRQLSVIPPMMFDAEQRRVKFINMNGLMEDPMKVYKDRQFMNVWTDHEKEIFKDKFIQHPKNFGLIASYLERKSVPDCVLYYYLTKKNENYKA
T2 sequence (Q13547 whole entry): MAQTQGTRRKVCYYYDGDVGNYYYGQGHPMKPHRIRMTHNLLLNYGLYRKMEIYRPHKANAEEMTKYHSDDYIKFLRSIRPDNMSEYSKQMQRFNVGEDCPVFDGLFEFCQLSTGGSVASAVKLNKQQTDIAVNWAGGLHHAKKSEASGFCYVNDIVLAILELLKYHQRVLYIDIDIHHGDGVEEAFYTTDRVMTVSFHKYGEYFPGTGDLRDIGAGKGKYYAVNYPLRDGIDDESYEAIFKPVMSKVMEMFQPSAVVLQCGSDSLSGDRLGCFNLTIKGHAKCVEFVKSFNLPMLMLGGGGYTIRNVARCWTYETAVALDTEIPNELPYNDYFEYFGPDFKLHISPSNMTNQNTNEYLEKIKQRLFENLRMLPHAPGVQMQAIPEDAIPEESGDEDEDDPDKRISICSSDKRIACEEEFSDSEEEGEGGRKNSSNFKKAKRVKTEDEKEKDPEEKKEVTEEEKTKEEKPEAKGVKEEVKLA

Row | SMILES | inhibition at 2 µM (HDAC2) [%] | inhibition at 10 µM (HDAC2) [%] | inhibition at 50 µM (HDAC2) [%] | inhibition at 2 µM (HDAC1) [%] | inhibition at 10 µM (HDAC1) [%] | inhibition at 50 µM (HDAC1) [%] | inhibition at 2 µM (HDAC3) [%] | inhibition at 10 µM (HDAC3) [%] | inhibition at 50 µM (HDAC3) [%] | inhibition at 4 µM (ATX (autotaxin)) [%] | inhibition at 20 µM (ATX (autotaxin)) [%] | inhibition at 50 µM (ATX (autotaxin)) [%]
1 | O=C(CCCCCCC(=O)Nc1ccc2c(c1)CCC(Cc1cc(C(F)(F)F)cc(C(F)(F)F)c1)C2=O)NO (stereo not drawn) [Compound 10, N1-(6-(3,5-bis(trifluoromethyl)benzyl)-5-oxo-5,6,7,8-tetrahydronaphthalen-2-yl)-N8-hydroxyoctanediamide] | < 50 | > 80 | > 80 | < 50 | 50 to 80 | > 80 | < 50 | 50 to 80 | > 80 | > 80 | > 80 | > 80
2 | O=C(NO)c1ccc(COc2ccc3c(c2)CCC(Cc2cc(C(F)(F)F)cc(C(F)(F)F)c2)C3=O)cc1 (stereo not drawn) [Compound 68, 4-(((6-(3,5-bis(trifluoromethyl)benzyl)-5-oxo-5,6,7,8-tetrahydronaphthalen-2-yl)oxy)methyl)-N-hydroxybenzamide] | < 50 | < 50 | < 50 | < 50 | < 50 | < 50 | < 50 | < 50 | < 50 | < 50 | < 50 | < 50
3 | Nc1cc(F)ccc1NC(=O)CCCCC(=O)Nc1ccc2c(c1)CC/C(=C\c1cc(C(F)(F)F)cc(C(F)(F)F)c1)C2=O [Compound 13, (E)-N1-(2-amino-4-fluorophenyl)-N6-(6-(3,5-bis(trifluoromethyl)benzylidene)-5-oxo-5,6,7,8-tetrahydronaphthalen-2-yl)adipamide] | < 50 | < 50 | < 50 | < 50 | < 50 | < 50 | < 50 | < 50 | < 50 | 50 to 80 | 50 to 80 | 50 to 80
4 | O=C(/C=C/c1ccc2c(c1)CCCC2OCc1cc(C(F)(F)F)cc(C(F)(F)F)c1)NO (stereo not drawn) [Compound 36, (E)-3-(5-((3,5-bis(trifluoromethyl)benzyl)oxy)-5,6,7,8-tetrahydronaphthalen-2-yl)-N-hydroxy acrylamide] | 50 to 80 | > 80 | > 80 | < 50 | > 80 | > 80 | < 50 | 50 to 80 | > 80 | < 50 | < 50 | < 50
5 | O=C(/C=C/c1ccc2c(c1)CCC2NC(=O)CCCCCCC(=O)NO)Nc1cc(Cl)cc(Cl)c1 (stereo not drawn) [Compound 42, (E)-N^1-(5-(3-((3,5-dichlorophenyl)amino)-3-oxoprop-1-en-1-yl)-2,3-dihydro-1H-inden-1-yl)-N^8-hydroxyoctanediamide] | 50 to 80 | 50 to 80 | > 80 | < 50 | 50 to 80 | > 80 | 50 to 80 | > 80 | 50 to 80 | < 50 | < 50 | > 80
6 | O=C(/C=C/c1ccc2c(c1)CCC2NCCc1c[nH]c2ccccc12)NO (stereo not drawn) [Compound 58, (E)-3-(1-((2-(1H-indol-3-yl)ethyl)amino)-2,3-dihydro-1H-inden-5-yl)-N-hydroxyacrylamide] | > 80 | > 80 | > 80 | > 80 | > 80 | > 80 | > 80 | > 80 | > 80 | < 50 | < 50 | 50 to 80
7 | CCN(CC)c1ccc(C(=O)NC2CCc3cc(/C=C/C(=O)Nc4ccc(F)cc4N)ccc32)cc1 (stereo not drawn) [Compound 27] | < 50 | < 50 | < 50 | < 50 | < 50 | < 50 | < 50 | < 50 | < 50 | < 50 | < 50 | < 50

Continued, values first:

Row | inhibition at 2 µM (HDAC2) [%] | inhibition at 10 µM (HDAC2) [%] | inhibition at 50 µM (HDAC2) [%] | inhibition at 2 µM (HDAC1) [%] | inhibition at 10 µM (HDAC1) [%] | inhibition at 50 µM (HDAC1) [%] | inhibition at 2 µM (HDAC3) [%] | inhibition at 10 µM (HDAC3) [%] | inhibition at 50 µM (HDAC3) [%] | inhibition at 4 µM (ATX (autotaxin)) [%] | inhibition at 20 µM (ATX (autotaxin)) [%] | inhibition at 50 µM (ATX (autotaxin)) [%] | SMILES
8 | < 50 | < 50 | 50 to 80 | < 50 | < 50 | 50 to 80 | < 50 | < 50 | 50 to 80 | > 80 | > 80 | > 80 | O=C(CCCCC(=O)N1CCN(C(=O)c2ccc3c(c2)CC/C(=C\c2cc(C(F)(F)F)cc(C(F)(F)F)c2)C3=O)CC1)NO [Compound 83, (E)-6-(4-(6-(3,5-bis(trifluoromethyl)benzylidene)-5-oxo-5,6,7,8-tetrahydro-naphthalene-2-carbonyl)piperazin-1-yl)-N-hydroxy-6-oxohexanamide]
9 | 50 to 80 | > 80 | > 80 | 50 to 80 | > 80 | > 80 | 50 to 80 | > 80 | > 80 | > 80 | > 80 | > 80 | O=C(CCCCCNC(=O)c1ccc2c(c1)CC/C(=C\c1cc(C(F)(F)F)cc(C(F)(F)F)c1)C2=O)NO [Compound 79, (E)-6-(3,5-bis(trifluoromethyl)benzylidene)-N-(6-(hydroxyamino)-6-oxohexyl)-5-oxo-5,6,7,8-tetrahydronaphthalene-2-carboxamide]
10 | > 80 | > 80 | > 80 | 50 to 80 | > 80 | > 80 | < 50 | > 80 | > 80 | > 80 | > 80 | > 80 | O=C(/C=C/c1ccc2c(c1)CC/C(=C\c1cc(C(F)(F)F)cc(C(F)(F)F)c1)C2=O)NCCCCCC(=O)NO [Compound 8, 6-((E)-3-(6-((E)-3,5-bis(trifluoromethyl)benzylidene)-5-oxo-5,6,7,8-tetrahydronaphthalen-2-yl)acrylamido)-N-hydroxyhexanamide]
11 | 50 to 80 | > 80 | > 80 | < 50 | > 80 | > 80 | < 50 | > 80 | > 80 | > 80 | > 80 | > 80 | O=C(CCCCCNC(=O)COc1ccc2c(c1)CC/C(=C\c1cc(C(F)(F)F)cc(C(F)(F)F)c1)C2=O)NO [Compound 74, (E)-6-(2-((6-(3,5-bis(trifluoromethyl)benzylidene)-5-oxo-5,6,7,8-tetra-hydronaphthalen-2-yl)oxy)acetamido)-N-hydroxyhexanamide]
